Results taken from patent publication US12605369B2, “Amido-substituted heterocyclic compounds and methods of use thereof for the treatment of herpes viruses” (Merck Sharp & Dohme LLC, priority 2019, dated 2026).
Read-outs that look alike come from different tables or passages of the source.

What was measured:
[1] = tested on: HCMV Strain AD169; assay: Viral qPCR assay, HCMV (Example 14); assay type: cell-based
Procedure: (§1) MRCS and Vero cells were obtained from ATCC and were maintained at 37° C./5% CO2/90% relative humidity in Minimal Essential Medium with 10% fetal bovine serum, […], 100 units/mL penicillin and 100 ug/mL streptomycin. Assay plates were prepared by dispensing compounds dissolved in DMSO into wells of 384 well collagen-coated plates using an ECHO acoustic dispenser. Each test compound was tested in a 10-point, serial 3-fold dilution. Controls included uninfected cells and infected cells treated only with DMSO. Assays were initiated by mixing selected cells, in suspension, with virus, and dispensing 50 μl/well infected cells to pre-plated compounds. Plates were incubated at 37° C./5% CO2/90% relative humidity for ˜72 hours to permit genomic replication, and infected cells were lysed by the addition of an equal volume of lysis buffer (10 mM Tris-HCl, pH8, 50 mM KCl, 2 mM MgCl2, 0.45% NP-40, 0.45% Tween-20, and 100 μg/mL proteinase K). An aliquot of the lysate was then transferred to a 384-well PCR plate and incubated at 56° C. for 1 hour, and then at 95° C. for 10 minutes. Levels of a viral gene were measured in 10 ul qPCR assays using TaqMan® Gene Expression Master Mix (Applied Biosystems) and an 7900HT Fast Real-Time PCR System with 384-Well Block Module. 7-point, serial 10-fold dilutions of a plasmid standard were run on each plate to generate a standard curve, and genome copies numbers were calculated by plotting experimental Ct onto linear regression of the standard curve. Compound effects on viral genome copy number were normalized to the window defined by the controls. Calculated % effects were fit using a 4-parameter algorithm, and EC50 was reported. • HCMV: Strain AD169 was assayed in MRC-5 cells and was used at 0.05-0.1 pfu/cell. The assays were performed in either growth media or in the same media with 50% fetal bovine serum. Primer-probe set was Thermo Fisher Assay ID=AIFATFK. • HSV-1: Strain F was assayed in Vero or MRCS cells and was used at 0.0005-0.004 pfu/cell in growth medium. Primer-probe set was Thermo Fisher Assay ID=AIBJZIB. • HSV-2: Strain G was assayed in Vero or MRCS cells and was used at 0.004-0.4 pfu/cell in growth medium. Primer-probe set was Thermo Fisher Assay ID=AICSXOJ.

[2] = target: T1, varicella zoster virus DNA polymerase (Varicella-zoster virus, UniProt P09252); assay: VZV polymerase assay (AlphaLISA, Example 15); assay type: biochemical; conditions: VZV polymerase 0.4 nM; 30 min pre-incubation; 60 min at 37° C.
T1 construct: made in house; host or cells: SF21 insect cells (baculovirus vector)
T1 sequence (P09252 whole entry): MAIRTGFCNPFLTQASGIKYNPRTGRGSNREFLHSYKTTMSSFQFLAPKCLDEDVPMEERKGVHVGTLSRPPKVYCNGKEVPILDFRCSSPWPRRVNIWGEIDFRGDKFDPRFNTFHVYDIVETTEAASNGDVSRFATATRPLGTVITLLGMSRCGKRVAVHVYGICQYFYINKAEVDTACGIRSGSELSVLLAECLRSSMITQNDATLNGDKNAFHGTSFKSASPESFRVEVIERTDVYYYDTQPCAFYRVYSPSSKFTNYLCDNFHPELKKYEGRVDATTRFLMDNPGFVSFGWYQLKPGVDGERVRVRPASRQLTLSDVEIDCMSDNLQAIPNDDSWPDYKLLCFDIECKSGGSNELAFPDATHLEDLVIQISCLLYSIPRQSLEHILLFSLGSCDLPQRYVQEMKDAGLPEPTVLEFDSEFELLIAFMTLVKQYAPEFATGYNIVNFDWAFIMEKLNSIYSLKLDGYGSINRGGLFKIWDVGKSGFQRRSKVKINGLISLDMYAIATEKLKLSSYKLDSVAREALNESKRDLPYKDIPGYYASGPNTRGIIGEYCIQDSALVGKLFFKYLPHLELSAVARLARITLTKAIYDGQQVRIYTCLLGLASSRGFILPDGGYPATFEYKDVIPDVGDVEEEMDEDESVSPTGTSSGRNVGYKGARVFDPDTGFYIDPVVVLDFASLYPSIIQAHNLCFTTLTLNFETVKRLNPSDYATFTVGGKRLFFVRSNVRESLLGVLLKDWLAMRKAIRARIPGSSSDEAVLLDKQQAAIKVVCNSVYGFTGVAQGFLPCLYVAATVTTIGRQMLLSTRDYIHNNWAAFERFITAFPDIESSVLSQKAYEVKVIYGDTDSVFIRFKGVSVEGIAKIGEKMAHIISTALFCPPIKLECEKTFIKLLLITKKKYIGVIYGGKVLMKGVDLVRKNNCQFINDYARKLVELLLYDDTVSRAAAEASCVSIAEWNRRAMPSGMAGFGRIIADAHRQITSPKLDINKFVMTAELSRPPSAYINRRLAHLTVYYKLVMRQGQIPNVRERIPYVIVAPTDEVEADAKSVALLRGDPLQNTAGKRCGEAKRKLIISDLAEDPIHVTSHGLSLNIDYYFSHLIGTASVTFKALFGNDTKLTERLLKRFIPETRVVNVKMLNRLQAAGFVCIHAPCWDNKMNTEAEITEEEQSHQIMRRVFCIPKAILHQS
Procedure: (§2) CMV and VZW Polymerase Assays
(§3) Human cytomegalovirus and varicella zoster virus DNA polymerases were expressed via baculovirus vector in SF21 cells and purified. Heterodimeric nucleic acid substrate used in the herpesvirus polymerase reactions were generated by annealing a 59-mer template to a 17-mer digoxigenin-labeled primer. Polymerase (HCMV final concentration of 0.2 nM; VZV final concentration of 0.4 nM) was combined with an inhibitor compound or DMSO in assay buffer (10 mM HEPES, pH 7.5, 25 mM KCl, 25 mM NaCl, 5 mM MgCl2, 5% glycerol, 0.67 mg/ml bovine serum albumin, and 1 mM tris(2-carboxyethyl)phosphine)), and this mixture was pre-incubated for 30 minutes at room temperature in 384-well microtiter plates. The polymerization reaction was initiated by the addition of template/primer substrate (final concentration: 1.6 nM) and dNTPs (final concentration: 24 nM dCTP, 24 nMdGTP, 16 nM dATP, 16 nM dTTP, and 0.8 nM biotin-dUTP). After a 60 minute incubation period at 37° C., the reactions were terminated using quench buffer (25 mM HEPES pH 7.5, 100 mM NaCl, 0.25% Tween-20, 12 mM EDTA, and 1 mg/ml bovine serum albumin). Incorporation of biotinylated UTP was detected with 2.5-5 μg/mL anti-DIG AlphaLISA acceptor beads and 5-10 μg/mL streptavidin AlphaLISA donor beads (PerkinElmer). Compound effects were normalized to the window defined by the controls (DMSO only and pre-quenched wells) and were fit using a 4-parameter algorithm to report an IC50.

[3] = target: T2, Human cytomegalovirus DNA polymerase (Human cytomegalovirus, UniProt P08546); assay: CMV polymerase assay (AlphaLISA, Example 15); assay type: biochemical; conditions: HCMV polymerase 0.2 nM; 30 min pre-incubation; 60 min at 37° C.
T2 construct: made in house; host or cells: SF21 insect cells (baculovirus vector)
T2 sequence (P08546 whole entry): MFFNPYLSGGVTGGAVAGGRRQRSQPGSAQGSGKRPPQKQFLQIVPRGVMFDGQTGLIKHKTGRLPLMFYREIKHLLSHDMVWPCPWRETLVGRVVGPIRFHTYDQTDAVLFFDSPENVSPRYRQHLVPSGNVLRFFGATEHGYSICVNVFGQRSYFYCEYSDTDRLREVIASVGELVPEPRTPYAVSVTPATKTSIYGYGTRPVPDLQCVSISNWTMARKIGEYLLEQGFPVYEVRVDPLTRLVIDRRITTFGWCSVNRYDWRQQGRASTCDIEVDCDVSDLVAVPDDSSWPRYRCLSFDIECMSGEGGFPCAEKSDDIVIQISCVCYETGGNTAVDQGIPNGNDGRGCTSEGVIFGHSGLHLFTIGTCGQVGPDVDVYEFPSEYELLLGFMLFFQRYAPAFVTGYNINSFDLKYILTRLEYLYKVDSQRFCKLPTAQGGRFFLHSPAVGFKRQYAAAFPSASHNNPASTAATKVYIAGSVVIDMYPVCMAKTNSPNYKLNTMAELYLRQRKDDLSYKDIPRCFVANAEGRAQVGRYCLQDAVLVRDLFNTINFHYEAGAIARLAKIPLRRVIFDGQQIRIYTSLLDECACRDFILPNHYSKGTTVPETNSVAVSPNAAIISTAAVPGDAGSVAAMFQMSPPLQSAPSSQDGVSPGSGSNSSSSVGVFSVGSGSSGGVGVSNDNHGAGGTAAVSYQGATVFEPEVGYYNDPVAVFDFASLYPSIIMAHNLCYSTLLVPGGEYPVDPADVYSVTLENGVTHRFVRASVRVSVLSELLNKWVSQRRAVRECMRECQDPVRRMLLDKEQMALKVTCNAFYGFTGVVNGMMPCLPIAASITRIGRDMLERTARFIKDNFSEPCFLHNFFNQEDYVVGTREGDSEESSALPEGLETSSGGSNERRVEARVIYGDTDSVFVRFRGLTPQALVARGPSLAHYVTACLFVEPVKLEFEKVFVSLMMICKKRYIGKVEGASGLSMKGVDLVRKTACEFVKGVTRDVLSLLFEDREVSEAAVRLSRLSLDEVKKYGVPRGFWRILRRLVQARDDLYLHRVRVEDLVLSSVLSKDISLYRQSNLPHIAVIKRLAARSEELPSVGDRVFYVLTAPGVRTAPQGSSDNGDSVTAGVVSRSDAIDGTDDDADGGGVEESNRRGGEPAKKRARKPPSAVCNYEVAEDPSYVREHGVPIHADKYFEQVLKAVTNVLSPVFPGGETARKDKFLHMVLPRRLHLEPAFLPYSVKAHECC
Procedure: as §2, §3

[4] = tested on: HSV-2 Strain G; assay: Viral qPCR assay, HSV-2 (Example 14); assay type: cell-based; conditions: Strain G in Vero or MRCS cells, 0.004-0.4 pfu/cell, viral genome copy number by qPCR, read-out: HSV2 Cell EC50
Procedure: as §1

[5] = tested on: HSV-1 Strain F; assay: Viral qPCR assay, HSV-1 (Example 14); assay type: cell-based; conditions: Strain F in Vero or MRCS cells, 0.0005-0.004 pfu/cell, viral genome copy number by qPCR, read-out: HSV1 Cell EC50
Procedure: as §1

[6] = Human betaherpesvirus 5, AD169, MRC5, 72 h, Strain AD169 in MRC-5 cells, 0.05-0.1 pfu/cell, ~72 hours, viral genome copy number by qPCR, growth media or 50% fetal bovine serum, read-out: CMV Cell EC50
[7] = Human alphaherpesvirus 2, Vero, 72 h
[8] = Human alphaherpesvirus 1, Vero, 72 h
[9] = Strain AD169 in MRC-5 cells, 0.05-0.1 pfu/cell, ~72 hours, viral genome copy number by qPCR, growth media or 50% fetal bovine serum, read-out: CMV Cell EC50

Compound | EC50 [1, 6] [nM] | IC50 [2] [nM] | IC50 [3] [nM] | EC50 [4, 7] [nM] | EC50 [5, 8] [nM] | EC50 [1, 9] [nM] | EC50 ([4]; ~72 hours) [nM] | EC50 ([5]; ~72 hours) [nM] | EC50 ([1]; Human betaherpesvirus 5, AD169, MRC5, 72 h, read-out: CMV Cell EC50 (nM)) [nM]
COc1nc(NC(=O)N2Cc3ccc(Cl)cc3C2)ccc1C[C@H]1COC(=O)N1 [Compound 12] | > 9900 | 4820 | 3770 |  |  |  |  |  | 
COc1nc(NC(=O)Cc2ccc(C#N)cc2F)ccc1C[C@H]1COC(=O)N1 [Compound 15] | 83 | 8 | 7.5 | 523 | 453 |  |  |  | 
COc1nc(N2CCN(c3ccc(C#N)cc3)C2=O)ccc1C[C@H]1COC(=O)N1 [Compound 21] | 369 |  | 29 | 90 | 309 |  |  |  | 
COc1nc(N2CCN(Cc3ccc(C#N)cc3)C2=O)ccc1C[C@H]1COC(=O)N1 [Compound 22] | 318 |  | 35 | 100 | 131 |  |  |  | 
COc1nc(NC(=O)C2CN(C)c3cc(C#N)ccc3O2)ccc1C[C@H]1COC(=O)N1 (stereo partly shown) [Compound 26] |  |  |  |  |  | 39 | 73 | 60 | 
COc1nc(NC(=O)C2CCc3cc(C#N)ccc32)ccc1C[C@H]1COC(=O)N1 (stereo partly shown) [Compound 19] | 475 | 7 | 10 | 259 | 311 |  |  |  | 
COc1nc(NC(=O)Cc2ccc(Cl)cc2COCc2ccccc2)ccc1C[C@H]1COC(=O)N1 [Compound 2] | 3550 |  | 108 |  |  |  |  |  | 
COc1nc(NC(=O)Cc2ccc(C#N)cc2)ccc1C[C@H]1COC(=O)N1 [Compound 13] | 128 | 8 | 22 | 191 | 300 |  |  |  | 
COc1nc(NC(=O)Cc2ccc(C(F)(F)F)c(F)c2)ccc1C[C@H]1COC(=O)N1 [Compound 14] | 486 |  | 11 | 134 | 281 |  |  |  | 
COc1nc(NC(=O)C2CCc3cc(C#N)ccc3N2C)ccc1C[C@H]1COC(=O)N1 (stereo partly shown) [Compound 29] |  |  |  |  |  | 345 | 4990 | 3510 | 
COc1nc(N2CCN(c3ccc(C#N)c(F)c3)C2=O)ccc1C[C@H]1COC(=O)N1 [Compound 11] |  |  | 30 |  |  |  |  |  | 596
COCc1cc(Cl)ccc1CC(=O)Nc1ccc(C[C@H]2COC(=O)N2)c(OC)n1 [Compound 5] | 116 | 18 | 12 | 318 | 166 |  |  |  | 
COc1nc(NC(=O)C2CN(C)c3cc(C#N)ccc3O2)ccc1C[C@H]1COC(=O)N1 (stereo partly shown) [Compound 27] |  |  |  |  |  | 10600 | 12900 | 62000 | 
COc1nc(NC(=O)C2(C)CCc3cc(C#N)ccc3O2)ccc1C[C@H]1COC(=O)N1 (stereo partly shown) [Compound 34] |  |  |  |  |  | 39800 | > 80200 | > 80200 | 
COc1nc(NC(=O)C2CCc3cc(C#N)ccc3C2)ccc1C[C@H]1COC(=O)N1 (stereo partly shown) [Compound 31] |  |  |  |  |  | 11100 | 48400 | 70100 | 
COc1nc(NC(=O)C2CCc3cc(C#N)ccc3O2)ccc1C[C@H]1COC(=O)N1 (stereo partly shown) [Compound 23] | 38 | 0.4 | 0.4 | 56 | 44 |  |  |  | 
COc1nc(NC(=O)C2CCc3cc(Cl)ccc32)ccc1C[C@H]1COC(=O)N1 (stereo partly shown) [Compound 17] | 133 |  | 23 | 99 | 127 |  |  |  | 
COc1nc(NC(=O)Cc2ccc(Cl)cc2CO)ccc1C[C@H]1COC(=O)N1 [Compound 3] | 178 |  | 12 | 504 | 396 |  |  |  | 
COc1nc(NC(=O)C2CCc3cc(C#N)ccc3C2)ccc1C[C@H]1COC(=O)N1 (stereo partly shown) [Compound 32] |  |  |  |  |  | 73 | 173 | 117 | 
COc1nc(N2CCN(c3ccc(Cl)cc3)C2=O)ccc1C[C@H]1COC(=O)N1 [Compound 10] | 522 |  | 14 | 291 | 282 |  |  |  | 
COc1nc(N2CCC(F)(c3ccc(C#N)cc3)C2=O)ccc1C[C@H]1COC(=O)N1 (single isomer, unassigned) [Compound 8] | 434 | 34 | 10 | 884 | 958 |  |  |  | 
COc1nc(NC(=O)C2Cc3ccc(C#N)cc3CN2)ccc1C[C@H]1COC(=O)N1 (stereo partly shown) [Compound 35] |  |  |  |  |  | 206 | 583 | 252 | 
COc1nc(NC(=O)[C@@H]2Cc3ccc(C#N)cc3CN2C)ccc1C[C@H]1COC(=O)N1 [Compound 28] | 175 |  |  | 802 | 381 |  |  |  | 
COc1nc(NC(=O)C2CCc3cc(C#N)ccc3N2C)ccc1C[C@H]1COC(=O)N1 (stereo partly shown) [Compound 30] |  |  |  |  |  | 2720 | 10700 | 7440 | 
COCc1cc(C#N)ccc1CC(=O)Nc1ccc(C[C@H]2COC(=O)N2)c(OC)n1 [Compound 6] | 36 | 8 | 9 | 198 | 152 |  |  |  | 
COc1nc(N2CCC(c3ccc(C#N)cc3)C2=O)ccc1C[C@H]1COC(=O)N1 (stereo partly shown) [Compound 20] | 120 | 5 | 6 | 132 | 124 |  |  |  | 
COc1nc(NC(=O)C2(C)CCc3cc(C#N)ccc3O2)ccc1C[C@H]1COC(=O)N1 (stereo partly shown) [Compound 33] |  |  |  |  |  | 1660 | 11100 | 8920 | 
COc1nc(NC(=O)C2CCc3cc(Cl)ccc3O2)ccc1C[C@H]1COC(=O)N1 (stereo partly shown) [Compound 18] | 435 | 1 | 1.4 | 148 | 128 |  |  |  | 
COc1nc(NC(=O)C2Cc3ccc(C#N)cc3CN2)ccc1C[C@H]1COC(=O)N1 (stereo partly shown) [Compound 36] |  |  |  |  |  | 1660 | 11100 | 1940 | 
